Here are results for 23 compounds from publication PMC4686872 (European journal of medicinal chemistry, 2015).

Series [1] relates to MRSA. Nature of the series: Broth microdilution MIC against MRSA, summarised over the strains tested. As to conditions: for antimicrobial activity against MRSA (in words): strains as named in the sentence; for MIC: Staphylococcus aureus, MRSA, read-out: MIC against MRSA. The class given is cell-based, Staphylococcus aureus. A general note: Broth dilution looks for growth in wells or tubes with falling amounts of substance.

The test system of series [2] is VRSA (VRS2). The series can be described thus: Broth microdilution MIC, VRSA VRS2. It is filed as cell-based, Staphylococcus aureus. As to conditions: vancomycin-resistant S. aureus VRS2.
The subject of series [3] is murine macrophage (J774) cell line. Nature of the series: MTS cytotoxicity assay. On the technique in general: Formazan colour is commonly taken as a measure of viable cells.
In series [4] the test system is MRSA USA300. The series can be described thus: Minimum bactericidal concentration.
A short description of series [5]: Kinetic solubility screen in PBS. It is filed as physicochemical.
Series [6] concerns Caco-2 bilayer. Nature of the series: Caco-2 permeability assay. (In general: Caco-2 cells form a polarised layer with tight junctions and transporters.)
For series [7], the system named is Caco-2 bilayer.
A short description of series [8]: in vitro. As to conditions: human, Caco-2.
Where [9] appears, read: 128 µM (data not presented), all toxic, exception = not toxic.
Setting [10] is: 64 µM / up to a concentration of 64 µM.

Values after ≈ are worked out from the molar mass of the structure shown. Like-named read-outs stand apart in the source and are kept apart here.

Regarding `[C-]#[N+]c1ccccc1-c1ccccc1` [Compound 46], the “antimicrobial activity against MRSA (in words)” value (“antimicrobial activity” for short) in series [1] is “lacks activity against three strains of MRSA”.
For `[C-]#[N+]c1ccccc1CP(=O)(OCC)OCC` [Compound 4a], in series [2], the “Minimum inhibitory concentration (MIC), VRSA2 VRS 2” value is given as above 128 µM. Besides, the “antimicrobial activity” value in series [1] is reported as “complete loss of activity”.
Consider `[C-]#[N+]c1ccccc1/C=C/c1cccnc1` [Compound 30], for which, in series [1], the “antimicrobial activity” value was “reduced antimicrobial activities”. The “toxicity to J774 cells” value in series [3] (setting [9]) is recorded as “exception”.
Turning to `N#Cc1ccccc1/C=C/c1ccccc1` [Compound 43], the “antimicrobial activity” value in series [1] is “complete loss of antimicrobial activity”.
As to `[C-]#[N+]c1ccc(C)cc1-c1ccc(C(F)(F)F)cc1` [Compound 50], the “antimicrobial activity” value in series [1] was “loss in antimicrobial activity”.
As to `[C-]#[N+]c1ccccc1/C=C/c1cccc(F)c1` [Compound 19], the “toxicity to J774 cells” value in series [3] (setting [10]) is “toxic”.
Take `[C-]#[N+]c1ccccc1/C=C/c1ccc([N+](=O)[O-])cc1` [Compound 25]: the “toxicity to J774 cells” value in series [3] (32 µM, all not toxic, exception = toxic) was “exception”; in series [3] (setting [10]), “toxic”.
For `[C-]#[N+]c1ccccc1/C=C(\CC)c1ccc(OC)cc1` [Compound 11], the “toxicity to J774 cells” value in series [3] (setting [10]) was “toxic”.
Turning to `[C-]#[N+]c1ccc(C)cc1-c1ccc(C(C)(C)C)cc1` [Compound 49], the “antimicrobial activity” value in series [1] was “loss in antimicrobial activity”.
Turning to `[C-]#[N+]c1ccccc1/C=C/c1ccncc1` [Compound 33], in series [1], the “antimicrobial activity” value is given as “reduced antimicrobial activities”.
Regarding `[C-]#[N+]c1ccccc1/C=C(\CC)c1ccccc1` [Compound 1], the minimal inhibitory concentration (MIC) in series [1] was in the range of 8 to 64 µM (≈ 1.87 to 14.9 µg/mL). For the same compound, the bacteriostatic or bactericidal result in series [4] is reported as “bacteriostatic”.
As for `COC(=O)[C@H]1[C@H]2C[C@@H]3c4[nH]c5cc(OC)ccc5c4CCN3C[C@H]2C[C@@H](OC(=O)c2cc(OC)c(OC)c(OC)c2)[C@@H]1OC` [Reserpine, reference compound], in series [5], the “Solubility Analysis” value was “Low solubility”.
In the case of `[C-]#[N+]c1ccccc1/C=C/c1cccc(OC)c1` [Compound 15], in series [3] (setting [9]), the “toxicity to J774 cells” value is recorded as “exception”.
For `[C-]#[N+]c1ccccc1/C=C/c1ccc(C)cc1` [Compound 23], in series [1], the MIC is 4 to 64 µM (≈ 0.877 to 14 µg/mL) and the “antimicrobial activity” value is given as “active against all MRSA strains tested”.
In the case of `[C-]#[N+]c1ccccc1C=C1CCCCC1` [Compound 26], the “antimicrobial activity” value in series [1] is “inactive against several MRSA isolates”.
The same measure, in the same setting: as for `[C-]#[N+]c1ccccc1/C=C/c1ccccn1` [Compound 27], the entry is “reduced antimicrobial activities”; as for `[C-]#[N+]c1ccccc1CCc1ccccc1` [Compound 53], “active against several strains”; as for `[C-]#[N+]c1ccccc1/C=C/c1ccc(CCCC)cc1` [Compound 24], “lacked activity against most MRSA strains tested”.
The same measure, in the same setting: in the case of `CC/C(=C\c1ccccc1)c1ccccc1` [Compound 42] it was “complete loss in the anti-MRSA activity”.
For `[C-]#[N+]c1ccccc1/C=C/c1ccccc1` [Compound 13], the “Permeability Analysis” value in series [6] is “Not permeable”. Also, in series [5], the “Solubility Analysis” value is on record as “Low solubility”. In series [1], the minimum inhibitory concentration (MIC) was at least 2 µM. Besides, the “reduction in the MIC against MRSA” value in series [1] (relative to compound 1 (removal of the ethyl group)) is on record as “two-to-eight fold”. In addition, the “toxicity to J774 cells” value in series [3] (setting [10]) is given as “neither compound was toxic”.
Regarding `[C-]#[N+]c1ccc(/C=C/c2ccccc2)cc1` [Compound 37], in series [3] (setting [9]), the “toxicity to J774 cells” value is recorded as “exception”.
Turning to `CNC(=C[N+](=O)[O-])NCCSCc1ccc(CN(C)C)o1` [Ranitidine], the “Permeability Analysis” value in series [7] was “Low permeability”. The same compound gave an apical-to-basolateral permeability (Papp A→B) in series [8] of 0.23 ×10⁻⁶ cm/s.
For the compound `[C-]#[N+]c1ccccc1/C=C(\CC)c1cccc(C(F)(F)F)c1` [Compound 12], in series [3] (setting [10]), the “toxicity to J774 cells” value is “toxic”.

What is called MIC is the least concentration at which growth counts as inhibited. The term Papp A→B denotes how fast a substance crosses the layer from the apical side. Read a low Papp A→B as slow passage.
